Test results as given in PubChem BioAssay AID248 (DTP/NCI, 2004).
Several values for one entry are separate records, joined by “and”; a condition that tells them apart may be missing. Equal values may be shown once. Inconclusive results and toxic doses are left out. Rule as the data show it: active = T/C of 150% or more; inactive = T/C below 125%.

System: L1210 leukemia ip in BDF1 mice, survival T/C
Test: NCI In Vivo Anticancer Drug Screen. Data for tumor model L1210 Leukemia (intraperitoneal) in B6D2F1 (BDF1) mice
Details: endpoint: mean survival time, higher = longer survival
Summary of the method: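 Tumor cells were implanted, animals were treated, and survival was followed. The result divides the treated measurement by the vehicle-control measurement.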

[1] = dose: 100.0 mg/kg/injection, schedule: Q01DX009 (ip), vehicle: Klucel (hydroxypropylcellulose) (HPC)
[2] = dose: 200.0 mg/kg/injection, schedule: Q01DX009 (ip), vehicle: Klucel (hydroxypropylcellulose) (HPC)
[3] = dose: 400.0 mg/kg/injection, schedule: Q01DX009 (ip), vehicle: Klucel (hydroxypropylcellulose) (HPC)
[4] = dose: 100.0 mg/kg/injection, schedule: Q04DX002 (ip), vehicle: saline with Tween-80
[5] = dose: 200.0 mg/kg/injection, schedule: Q04DX002 (ip), vehicle: saline with Tween-80
[6] = dose: 400.0 mg/kg/injection, schedule: Q04DX002 (ip), vehicle: saline with Tween-80
[7] = dose: 100.0 mg/kg/injection, schedule: Q01DX001 (ip), vehicle: saline with Tween-80
[8] = dose: 200.0 mg/kg/injection, schedule: Q01DX001 (ip), vehicle: saline with Tween-80
[9] = dose: 400.0 mg/kg/injection, schedule: Q01DX001 (ip), vehicle: saline with Tween-80
[10] = dose: 100.0 mg/kg/injection, schedule: Q01DX001 (ip), vehicle: carboxymethylcellulose (CMC)
[11] = dose: 200.0 mg/kg/injection, schedule: Q01DX001 (ip), vehicle: carboxymethylcellulose (CMC)
[12] = dose: 400.0 mg/kg/injection, schedule: Q01DX001 (ip), vehicle: carboxymethylcellulose (CMC)
[13] = dose: 100.0 mg/kg/injection, schedule: Q01DX009 (ip), vehicle: saline with Tween-80
[14] = dose: 200.0 mg/kg/injection, schedule: Q01DX009 (ip), vehicle: saline with Tween-80
[15] = dose: 100.0 mg/kg/injection, schedule: Q04DX003 (ip), vehicle: Klucel (hydroxypropylcellulose) (HPC)
[16] = dose: 200.0 mg/kg/injection, schedule: Q04DX003 (ip), vehicle: Klucel (hydroxypropylcellulose) (HPC)
[17] = dose: 50.0 mg/kg/injection, schedule: Q01DX001 (ip), vehicle: saline
[18] = dose: 100.0 mg/kg/injection, schedule: Q01DX001 (ip), vehicle: saline
[19] = dose: 200.0 mg/kg/injection, schedule: Q01DX001 (ip), vehicle: saline
[20] = dose: 400.0 mg/kg/injection, schedule: Q01DX001 (ip), vehicle: saline
[21] = dose: 100.0 mg/kg/injection, schedule: Q04DX003 (ip), vehicle: saline with Tween-80

Measured: T/C

CC1C2c3ccccc3C(c3ccccc32)C1S(=O)(=O)F (stereo not drawn)
inactive: [1] 97 % of control | [2] 100 % of control | [3] 106 % of control

CC(=O)OC1C(OS(=O)(=O)c2ccc(C)cc2)C(COC(=O)c2ccccc2)OC1n1cnc2c(NC(=O)c3ccccc3)ncnc21 (stereo not drawn)
inactive: dose: 100.0 mg/kg/injection, schedule: Q01DX005 (ip), vehicle: saline 97 % of control | dose: 200.0 mg/kg/injection, schedule: Q01DX005 (ip), vehicle: saline 90 % of control

CC12CCCCC1C(C(=O)O)CC2 (stereo not drawn)
inactive: [4] 105 % of control | [5] 105 % of control | [6] 92 % of control

C/C(=N\Nc1c(F)c(F)c(F)c(F)c1F)c1ccccc1
inactive: [7] 105 % of control | [8] 96 % of control | [9] 100 % of control

Cc1ccc(S(=O)(=O)N/N=C\C(O)C(O)C(O)CO)cc1 (stereo not drawn)
inactive: [4] 97 % of control | [5] 94 % of control | [6] 97 % of control

CC1c2nc(N)nc(N)c2CN1C(=O)c1ccccc1 (stereo not drawn)
inactive: [10] 98 % of control | [11] 98 % of control | [12] 97 % of control

CC1(N(O)C(=O)NCCCl)CCCCC1
inactive: [7] 109 % of control | [8] 102 % of control | [9] 93 % of control

Cc1cc(P(=O)(O)O)ccc1[N+](=O)[O-]
inactive: dose: 75.0 mg/kg/injection, schedule: Q01DX001 (ip), vehicle: saline 95 % of control | dose: 150.0 mg/kg/injection, schedule: Q01DX001 (ip), vehicle: saline 88 % of control | dose: 300.0 mg/kg/injection, schedule: Q01DX001 (ip), vehicle: saline 96 % of control

OCC(O)COc1ccc(Cl)cc1Cl (stereo not drawn)
inactive: [13] 105 % of control | [14] 101 % of control

C=NNC(=O)c1ccc(OC)cc1
inactive: dose: 50.0 mg/kg/injection, schedule: Q01DX001 (ip), vehicle: carboxymethylcellulose (CMC) 96 % of control | [10] 96 % of control | [11] 93 % of control | [12] 93 % of control

COc1ccc2c(c1)C(=O)C1CC3(CCC21)OCCO3 (stereo not drawn)
inactive: [1] 101 % of control | [15] 109 % of control | [2] 97 % of control | [16] 93 % of control | [3] 95 % of control | dose: 400.0 mg/kg/injection, schedule: Q04DX003 (ip), vehicle: Klucel (hydroxypropylcellulose) (HPC) 100 % of control

S=c1cc(S)c(=S)[nH][nH]1
inactive: dose: 5.0 mg/kg/injection, schedule: Q01DX001 (ip), vehicle: other 98 % of control | dose: 10.0 mg/kg/injection, schedule: Q01DX001 (ip), vehicle: other 96 % of control | dose: 20.0 mg/kg/injection, schedule: Q01DX001 (ip), vehicle: other 96 % of control

O=C(O)COc1ccccc1O
inactive: [13] 101 % of control | [14] 101 % of control

O=C(CCC(=O)OCCBr)OCCBr
inactive: [15] 110 % of control | [16] 102 % of control

CCNC(=O)N(Cc1ccccc1)Cc1ccccc1
inactive: [13] 98 % of control | [14] 93 % of control

O=C1NC(=O)C2(N1)c1ccccc1-c1ccccc12
inactive: [1] 95 % of control | [2] 90 % of control | [3] 95 % of control

O=c1nc2ccc3[nH]c(O)c4ccc1c2c34
inactive: [17] 104 % of control | [18] 104 % of control | [19] 104 % of control | [20] 98 % of control

CCCCCCN(CCCCCC)P(=O)(N1CC1C)N1CC1C (stereo not drawn)
inactive: [17] 104 % of control | [18] 101 % of control

CC(=O)OCN1C(=O)C2C3CCC(O3)C2C1=O (stereo not drawn)
inactive: dose: 25.0 mg/kg/injection, schedule: Q04DX003 (ip), vehicle: saline with Tween-80 104 % of control | dose: 50.0 mg/kg/injection, schedule: Q04DX003 (ip), vehicle: saline with Tween-80 98 % of control | [7] 106 % of control | [21] 95 % of control and 104 % of control | [8] 98 % of control

CCOC(=O)C(NC(=O)c1cc2sccc2[nH]1)C(=O)OCC
inactive: dose: 100.0 mg/kg/injection, schedule: Q01DX001 (ip), vehicle: Klucel (hydroxypropylcellulose) (HPC) 96 % of control | dose: 200.0 mg/kg/injection, schedule: Q01DX001 (ip), vehicle: Klucel (hydroxypropylcellulose) (HPC) 96 % of control | dose: 400.0 mg/kg/injection, schedule: Q01DX001 (ip), vehicle: Klucel (hydroxypropylcellulose) (HPC) 98 % of control

CC(=O)Nc1ccc(NC(=O)Nc2ccccc2F)cc1
inactive: [1] 98 % of control | [2] 96 % of control | [3] 102 % of control

O=C1C=CC(=O)N1c1cc(Cl)c(Cl)cc1Cl
inactive: dose: 10.0 mg/kg/injection, schedule: Q01DX001 (ip), vehicle: saline 97 % of control | dose: 20.0 mg/kg/injection, schedule: Q01DX001 (ip), vehicle: saline 87 % of control | dose: 40.0 mg/kg/injection, schedule: Q01DX001 (ip), vehicle: saline 95 % of control

O=[N+]([O-])c1cc(/C=N/Nc2nnc(N/N=C/c3ccc(Cl)c([N+](=O)[O-])c3)c3ccccc23)ccc1Cl
inactive: [17] 106 % of control | [18] 96 % of control | [19] 100 % of control | [20] 100 % of control

C=CCc1ccc(OC(=O)Nc2ccccc2)c(OC)c1
inactive: dose: 100.0 mg/kg/injection, schedule: Q04DX002 (ip), vehicle: Klucel (hydroxypropylcellulose) (HPC) 87 % of control | dose: 200.0 mg/kg/injection, schedule: Q04DX002 (ip), vehicle: Klucel (hydroxypropylcellulose) (HPC) 87 % of control | dose: 400.0 mg/kg/injection, schedule: Q04DX002 (ip), vehicle: Klucel (hydroxypropylcellulose) (HPC) 87 % of control

CCCCCCCCCC(=O)CCC
inactive: dose: 100.0 mg/kg/injection, schedule: Q01DX009 (ip), vehicle: saline 100 % of control | dose: 100.0 mg/kg/injection, schedule: Q04DX003 (ip), vehicle: saline 111 % of control | dose: 200.0 mg/kg/injection, schedule: Q01DX009 (ip), vehicle: saline 96 % of control | dose: 200.0 mg/kg/injection, schedule: Q04DX003 (ip), vehicle: saline 97 % of control | dose: 400.0 mg/kg/injection, schedule: Q01DX009 (ip), vehicle: saline 98 % of control | dose: 400.0 mg/kg/injection, schedule: Q04DX003 (ip), vehicle: saline 105 % of control

CC(C(=O)c1ccccc1)C(c1ccccc1)N1CCOCC1 (stereo not drawn)
inactive: [21] 106 % of control | dose: 200.0 mg/kg/injection, schedule: Q04DX003 (ip), vehicle: saline with Tween-80 101 % of control | dose: 400.0 mg/kg/injection, schedule: Q04DX003 (ip), vehicle: saline with Tween-80 100 % of control

Oc1ccc(C2(c3ccc(O)cc3)CCCCC2)cc1
inactive: dose: 25.0 mg/kg/injection, schedule: Q01DX009 (ip), vehicle: alcohol 112 % of control | dose: 50.0 mg/kg/injection, schedule: Q01DX009 (ip), vehicle: alcohol 117 % of control | dose: 100.0 mg/kg/injection, schedule: Q01DX009 (ip), vehicle: alcohol 87 % of control | [13] 89 % of control | [14] 92 % of control
